Results from paper PMC12320831, “Synthesis and Biological Evaluation of New Chalcogen Semicarbazone (S, Se) and Their Azole Derivatives against Chagas Disease” (Journal of Medicinal Chemistry, 2024).
Values joined by “and” are separate entries in the source; they are usually repeats but may differ in a detail not shown here. Equal values may be shown once. Read-outs that look alike come from different tables or passages of the source.

Key:
[1] = biological target: T1, recombinant Cz (cruzain) (Trypanosoma cruzi, UniProt P25779); assay: biochemical; conditions: for SICz: ratio between IC50 hCatL and IC50 Cz
T1 construct: Cz was expressed and purified as described in da Silva et al; made in house
T1 sequence (P25779 123-337 limits assumed): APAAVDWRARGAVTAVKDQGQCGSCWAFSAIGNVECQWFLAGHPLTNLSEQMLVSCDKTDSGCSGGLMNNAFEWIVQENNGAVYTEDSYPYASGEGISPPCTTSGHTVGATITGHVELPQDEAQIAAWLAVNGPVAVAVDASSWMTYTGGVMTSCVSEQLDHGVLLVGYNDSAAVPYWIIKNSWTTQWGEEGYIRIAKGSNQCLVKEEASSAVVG
How it was run: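 Cruzain (1 nM) was preincubated 10 min with compound in 0.1 M sodium acetate pH 5.5, 1 mM DTT, 0.01% Triton X-100, then 2.5 μM Z-FR-AMC (final) was added. Fluorescence (360/460 nm) was read for 10 min at 25 °C and normalized to DMSO.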

[2] = Host cell cytotoxicity (C2C12 viability); format: cell-based, Mouse; conditions: mouse, C2C12 myoblast cells infected with trypomastigotes; for viability at 48 h, 10 µM: < 50% viability considered cytotoxic; for CC50 at 48 h: viability calculated at 10 μM
How it was run: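 Mouse C2C12 myoblasts co-seeded with CAI/72 trypomastigotes (10:1 parasite:cell) on compound, 48 h at 37 °C, 5% CO2. DAPI-stained fixed cells imaged; parasites per host cell normalized to 40 μM BNZ and DMSO. EC50 and C2C12 viability from dose-response curves, three biological replicates in triplicate.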

[3] = tested on: T. cruzi CAI/72 strain; assay: Antiparasitic activity in C2C12 cells infected with T. cruzi CAI/72 (image-based assay); format: cell-based; conditions: Trypanosoma cruzi, read-out: Anti-Tc CAI/72 activity (%)
[4] = biological target: T2, Recombinant human cathepsin L (hCatL) (Homo sapiens, UniProt P07711); assay: Human cathepsin L inhibition assay (Z-FR-AMC substrate); format: biochemical
T2 construct: purchased R&D Systems 952-CY
T2 sequence (P07711 114-333): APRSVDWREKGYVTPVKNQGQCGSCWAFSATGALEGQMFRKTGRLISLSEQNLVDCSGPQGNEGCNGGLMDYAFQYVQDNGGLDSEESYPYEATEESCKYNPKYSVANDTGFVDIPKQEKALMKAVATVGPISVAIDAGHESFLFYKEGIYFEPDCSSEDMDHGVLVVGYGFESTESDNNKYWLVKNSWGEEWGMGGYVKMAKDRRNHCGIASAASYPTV
Procedure: Compounds were screened at 10 μM. […] The experiment was performed for 30 min.
All experiments were accomplished in a 384-well black microplate, using a Synergy HTX (Biotek) plate reader at 25 °C with absorption/emission wavelengths of 360/460 nm. All assays were performed in triplicate wells and DMSO was used as a vehicle control. Enzymatic activity was measured and normalized to DMSO controls, and the inhibitor E-64 (10 μM) was used as a positive control for all assays. All experiments were performed in triplicates, with at least two independent assays (n = 6 data points). IC50 values were determined through nonlinear regression. Obtained data were treated and analyzed using GraphPad Prism 9.0 (GraphPad Software, La Jolla, California).

[5] = tested on: T. cruzi CAI/72 strain; assay: Antiparasitic activity in C2C12 cells infected with T. cruzi CAI/72 (image-based assay); format: cell-based; conditions: Trypanosoma cruzi
[6] = tested on: Cz isolated and purified from Tulahuen 2 strain epimastigotes; set-up: method as in Jasinski et al.; conditions: different assay conditions and enzyme origin; ref Jasinski et al.; cited from earlier work

| Structure (SMILES) | SICz [1] | viability at 48 h, 10 µM [2] [%] | CC50 at 48 h [2] [nM] | inhibition at 3 µM [3] [%] | Cz inhibition (%) ([1]; 10 µM) | IC50 ([1]; each of two biological replicates in triplicate, read-out: IC50 Cz, single biological replicate (Figure 3)) | IC50 ([1]; mean of two experiments in triplicate (n = 6) ± SEM, read-out: IC50 Cz) [nM] | SICz ([1]; listed as S 1i) | inhibition at 10 µM ([1]; read-out: Cz inhibition (%), 10 µM) [%] | inhibition at 10 µM ([4]; 10 µM) [%] | IC50 ([4]; each of two biological replicates in triplicate, read-out: IC50 hCatL, single biological replicate (Figure 4)) | IC50 ([4]; mean of two experiments in triplicate (n = 6) ± SEM, read-out: IC50 hCatL) [nM] | inhibition at 10 µM ([5]; 10 µM, C2C12 infected cells, read-out: Anti-Tc CAI/72 activity (%)) [%] | EC50 ([5]; intracellular amastigotes in C2C12 cells, 48 h, mean of three experiments in triplicate (n = 9) ± SD, read-out: EC50 Tc CAI/72) [nM] | IC50 [6] [nM] |
| --- | --- | --- | --- | --- | --- | --- | --- | --- | --- | --- | --- | --- | --- | --- | --- |
| CN1CCN(C(=O)N[C@@H](Cc2ccccc2)C(=O)N[C@H](/C=C/S(=O)(=O)c2ccccc2)CCc2ccccc2)CC1 [Compound K777, reference compound] | 0.13 | > 100 | > 10000 | 61 | – | – | – | – | – | – | – | – | – | – | – |
| C/C(=N\NC(N)=S)c1cccc(Cl)c1 [Compound S1i, (E)-2-(1-(3-Chlorophenyl)ethylidene)hydrazine-1-carbothioamide] | 35.76 | > 100 | > 10000 | – | 100.00 | 2 nM and 3 nM | 2.5 ± 0.51 | 36 | > 85 | 97.2 | 58 nM and 120 nM | 89.4 ± 31.4 | 56.2 | ~10000 | 29900 |
